#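 Protocol summary: plate cells (96-well), add compound at 5 concentrations, incubate 48 h, interpolate endpoints linearly. TGI is the concentration that stops growth completely.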
# Key:
# Assay in all cases: NCI-60 cell line screen, 48 h
# XF 498 CNS = system: XF 498 CNS
# SF-268 CNS = system: SF-268 CNS
# NCI-H226 lung = system: NCI-H226 lung
# HOP-62 NSCLC = system: HOP-62 NSCLC
# COLO 205 colon = system: COLO 205 colon
# UACC-257 melanoma = system: UACC-257 melanoma
# HCT-15 colon = system: HCT-15 colon
# NCI-H460 lung = system: NCI-H460 lung
# MOLT-4 leukemia = system: MOLT-4 leukemia
# HCT-116 colon = system: HCT-116 colon
# RXF 393 renal = system: RXF 393 renal
# U251 CNS = system: U251 CNS
# SW-620 colon = system: SW-620 colon
# LXFL 529 NSCLC = system: LXFL 529 NSCLC
# UACC-62 melanoma = system: UACC-62 melanoma
# SK-MEL-28 melanoma = system: SK-MEL-28 melanoma
# SR leukemia = system: SR leukemia
# HOP-18 NSCLC = system: HOP-18 NSCLC
# HT29 colon = system: HT29 colon
# DMS 114 small cell lung = system: DMS 114 small cell lung
# K-562 leukemia = system: K-562 leukemia
# MALME-3M melanoma = system: MALME-3M melanoma
# NCI-H23 lung = system: NCI-H23 lung
# CCRF-CEM leukemia = system: CCRF-CEM leukemia
# SK-MEL-5 melanoma = system: SK-MEL-5 melanoma
# ACHN renal = system: ACHN renal
# SF-539 CNS = system: SF-539 CNS
# HOP-92 NSCLC = system: HOP-92 NSCLC
# SK-OV-3 ovarian = system: SK-OV-3 ovarian
# RPMI-8226 leukemia = system: RPMI-8226 leukemia
# KM20L2 colon = system: KM20L2 colon
# EKVX NSCLC = system: EKVX NSCLC
# OVCAR-4 ovarian = system: OVCAR-4 ovarian
# UO-31 renal = system: UO-31 renal
# SF-295 CNS = system: SF-295 CNS
# SNB-75 CNS = system: SNB-75 CNS
# M14 melanoma = system: M14 melanoma
# KM12 colon = system: KM12 colon
# OVCAR-3 ovarian = system: OVCAR-3 ovarian
# DLD-1 colon = system: DLD-1 colon
# LOX IMVI melanoma = system: LOX IMVI melanoma
# SNB-78 CNS = system: SNB-78 CNS
# NCI-H522 lung = system: NCI-H522 lung
# M19-MEL melanoma = system: M19-MEL melanoma
# IGROV1 ovarian = system: IGROV1 ovarian
# OVCAR-8 ovarian = system: OVCAR-8 ovarian
# TK-10 renal = system: TK-10 renal
# 786-0 renal = system: 786-0 renal
# DMS 273 small cell lung = system: DMS 273 small cell lung
# HL-60(TB) leukemia = system: HL-60(TB) leukemia
# SN12C renal = system: SN12C renal
# CAKI-1 renal = system: CAKI-1 renal
# A549 NSCLC = system: A549 NSCLC
# OVCAR-5 ovarian = system: OVCAR-5 ovarian
# HCC-2998 colon = system: HCC-2998 colon
# SK-MEL-2 melanoma = system: SK-MEL-2 melanoma
# SNB-19 CNS = system: SNB-19 CNS
# A498 renal = system: A498 renal
smiles,measurement,setting,value
CN(CCO)c1nc2c(c(=O)[nH]1)CNCC2,TGI,XF 498 CNS,> 100 µM
same,TGI,SF-268 CNS,> 100 µM
same,TGI,NCI-H226 lung,> 100 µM
same,TGI,HOP-62 NSCLC,> 100 µM
same,TGI,COLO 205 colon,> 100 µM
same,TGI,UACC-257 melanoma,> 100 µM
same,TGI,HCT-15 colon,> 100 µM
same,TGI,NCI-H460 lung,> 100 µM
same,TGI,MOLT-4 leukemia,> 100 µM
same,TGI,HCT-116 colon,> 100 µM
same,TGI,RXF 393 renal,> 100 µM
same,TGI,U251 CNS,> 100 µM
same,TGI,SW-620 colon,> 100 µM
same,TGI,LXFL 529 NSCLC,> 100 µM
same,TGI,UACC-62 melanoma,> 100 µM
same,TGI,SK-MEL-28 melanoma,> 100 µM
same,TGI,SR leukemia,> 100 µM
same,TGI,HOP-18 NSCLC,> 100 µM
same,TGI,HT29 colon,> 100 µM
same,TGI,DMS 114 small cell lung,> 100 µM
same,TGI,K-562 leukemia,> 100 µM
same,TGI,MALME-3M melanoma,> 100 µM
same,TGI,NCI-H23 lung,> 100 µM
same,TGI,CCRF-CEM leukemia,> 100 µM
same,TGI,SK-MEL-5 melanoma,> 100 µM
same,TGI,ACHN renal,> 100 µM
same,TGI,SF-539 CNS,> 100 µM
same,TGI,HOP-92 NSCLC,> 100 µM
same,TGI,SK-OV-3 ovarian,> 100 µM
same,TGI,RPMI-8226 leukemia,> 100 µM
same,TGI,KM20L2 colon,> 100 µM
same,TGI,EKVX NSCLC,> 100 µM
same,TGI,OVCAR-4 ovarian,> 100 µM
same,TGI,UO-31 renal,> 100 µM
same,TGI,SF-295 CNS,> 100 µM
same,TGI,SNB-75 CNS,> 100 µM
same,TGI,M14 melanoma,> 100 µM
same,TGI,KM12 colon,> 100 µM
same,TGI,OVCAR-3 ovarian,> 100 µM
same,TGI,DLD-1 colon,> 100 µM
same,TGI,LOX IMVI melanoma,> 100 µM
same,TGI,SNB-78 CNS,> 100 µM
same,TGI,NCI-H522 lung,> 100 µM
same,TGI,M19-MEL melanoma,> 100 µM
same,TGI,IGROV1 ovarian,> 100 µM
same,TGI,OVCAR-8 ovarian,> 100 µM
same,TGI,TK-10 renal,> 100 µM
same,TGI,786-0 renal,> 100 µM
same,TGI,DMS 273 small cell lung,> 100 µM
same,TGI,HL-60(TB) leukemia,> 100 µM
same,TGI,SN12C renal,> 100 µM
same,TGI,CAKI-1 renal,> 100 µM
same,TGI,A549 NSCLC,> 100 µM
same,TGI,OVCAR-5 ovarian,> 100 µM
same,TGI,HCC-2998 colon,> 100 µM
same,TGI,SK-MEL-2 melanoma,> 100 µM
same,TGI,SNB-19 CNS,> 100 µM
Cc1ccc(S(=O)(=O)N/N=C(\C(=O)Nc2cccc([N+](=O)[O-])c2)c2nc3ccc([N+](=O)[O-])cc3[nH]c2=O)cc1,TGI,SF-268 CNS,> 100 µM
same,TGI,NCI-H226 lung,> 100 µM
same,TGI,HOP-62 NSCLC,> 100 µM
same,TGI,COLO 205 colon,> 100 µM
same,TGI,UACC-257 melanoma,> 100 µM
same,TGI,HCT-15 colon,> 100 µM
same,TGI,A498 renal,> 100 µM
same,TGI,NCI-H460 lung,> 100 µM
same,TGI,MOLT-4 leukemia,> 100 µM
same,TGI,HCT-116 colon,> 100 µM
same,TGI,RXF 393 renal,> 100 µM
same,TGI,U251 CNS,> 100 µM
same,TGI,SW-620 colon,> 100 µM
same,TGI,LXFL 529 NSCLC,> 100 µM
same,TGI,UACC-62 melanoma,> 100 µM
same,TGI,SK-MEL-28 melanoma,> 100 µM
same,TGI,SR leukemia,> 100 µM
same,TGI,HT29 colon,> 100 µM
same,TGI,DMS 114 small cell lung,99.1 µM
same,TGI,K-562 leukemia,> 100 µM
same,TGI,MALME-3M melanoma,> 100 µM
same,TGI,NCI-H23 lung,> 100 µM
same,TGI,CCRF-CEM leukemia,> 100 µM
same,TGI,SK-MEL-5 melanoma,> 100 µM
same,TGI,ACHN renal,> 100 µM
same,TGI,SF-539 CNS,> 100 µM
same,TGI,HOP-92 NSCLC,> 100 µM
same,TGI,SK-OV-3 ovarian,> 100 µM
same,TGI,RPMI-8226 leukemia,> 100 µM
same,TGI,EKVX NSCLC,> 100 µM
same,TGI,OVCAR-4 ovarian,> 100 µM
same,TGI,UO-31 renal,> 100 µM
same,TGI,SF-295 CNS,> 100 µM
same,TGI,M14 melanoma,> 100 µM
same,TGI,KM12 colon,> 100 µM
same,TGI,OVCAR-3 ovarian,> 100 µM
same,TGI,DLD-1 colon,> 100 µM
same,TGI,LOX IMVI melanoma,> 100 µM
same,TGI,SNB-78 CNS,> 100 µM
same,TGI,NCI-H522 lung,> 100 µM
same,TGI,M19-MEL melanoma,> 100 µM
same,TGI,IGROV1 ovarian,> 100 µM
same,TGI,OVCAR-8 ovarian,> 100 µM
same,TGI,786-0 renal,> 100 µM
same,TGI,SN12C renal,> 100 µM
same,TGI,CAKI-1 renal,> 100 µM
same,TGI,A549 NSCLC,> 100 µM
same,TGI,OVCAR-5 ovarian,> 100 µM
same,TGI,HCC-2998 colon,69.9 µM
same,TGI,SK-MEL-2 melanoma,> 100 µM
same,TGI,SNB-19 CNS,> 100 µM
CCCCCCCCCC(=O)OCC1OC(n2cc(F)c(=O)[nH]c2=O)C(N)C(OC(=O)CCCCCCCCC)C1O (stereo unspecified),TGI,SF-268 CNS,40.2 µM
same,TGI,HOP-62 NSCLC,> 100 µM
same,TGI,COLO 205 colon,31.2 µM
same,TGI,UACC-257 melanoma,39 µM
same,TGI,HCT-15 colon,34.7 µM
same,TGI,A498 renal,31.6 µM
same,TGI,NCI-H460 lung,40.5 µM
same,TGI,MOLT-4 leukemia,32.7 µM
same,TGI,HCT-116 colon,32.1 µM
same,TGI,RXF 393 renal,31.9 µM
same,TGI,U251 CNS,32.3 µM
same,TGI,SW-620 colon,31.8 µM
same,TGI,LXFL 529 NSCLC,30.2 µM
same,TGI,UACC-62 melanoma,32.7 µM
same,TGI,SK-MEL-28 melanoma,30.4 µM
same,TGI,SR leukemia,45.3 µM
same,TGI,HT29 colon,35.8 µM
same,TGI,DMS 114 small cell lung,29.6 µM
same,TGI,K-562 leukemia,36.7 µM
same,TGI,MALME-3M melanoma,35.2 µM
same,TGI,NCI-H23 lung,36 µM
same,TGI,CCRF-CEM leukemia,50.4 µM
same,TGI,SK-MEL-5 melanoma,37.4 µM
same,TGI,ACHN renal,> 100 µM
same,TGI,SF-539 CNS,33.7 µM
same,TGI,HOP-92 NSCLC,37 µM
same,TGI,SK-OV-3 ovarian,> 100 µM
same,TGI,RPMI-8226 leukemia,48.4 µM
same,TGI,KM20L2 colon,34.8 µM
same,TGI,EKVX NSCLC,34.1 µM
same,TGI,OVCAR-4 ovarian,31 µM
same,TGI,UO-31 renal,54.9 µM
same,TGI,SF-295 CNS,31.9 µM
same,TGI,SNB-75 CNS,34.4 µM
same,TGI,M14 melanoma,34.3 µM
same,TGI,KM12 colon,41.2 µM
same,TGI,OVCAR-3 ovarian,32.7 µM
same,TGI,LOX IMVI melanoma,30.1 µM
same,TGI,SNB-78 CNS,36.8 µM
same,TGI,NCI-H522 lung,30.1 µM
same,TGI,M19-MEL melanoma,31.2 µM
same,TGI,IGROV1 ovarian,> 100 µM
same,TGI,OVCAR-8 ovarian,34.6 µM
same,TGI,TK-10 renal,> 100 µM
same,TGI,786-0 renal,32.9 µM
same,TGI,DMS 273 small cell lung,38 µM
same,TGI,HL-60(TB) leukemia,55.1 µM
same,TGI,SN12C renal,32.2 µM
same,TGI,CAKI-1 renal,> 100 µM
same,TGI,A549 NSCLC,34.1 µM
same,TGI,HCC-2998 colon,33.3 µM
same,TGI,SK-MEL-2 melanoma,29.6 µM
same,TGI,SNB-19 CNS,33.6 µM
